Results as given in PMC11876601 (Molecular Systems Biology, 2025).
“And” between values parts separate entries of the source, which are not always exact repeats. Identical values can stand only once. Like-named read-outs stand apart in the source and are kept apart here.

What was measured:
RPS6KA3 = test system: RPS6KA3; parameters: method as in Klaeger et al. (2017); conditions: lysate 4 cell line mix (Colo205, K-562, MV-4-11, and SK-N-BE(2)), Kinobeads y, ref Klaeger et al. (2017); cited from earlier work
INCENP = test system: INCENP; parameters: method as in Klaeger et al. (2017); conditions: lysate 4 cell line mix (Colo205, K-562, MV-4-11, and SK-N-BE(2)), Kinobeads y, ref Klaeger et al. (2017); cited from earlier work
SLK = test system: SLK; parameters: method as in Klaeger et al. (2017); conditions: lysate 4 cell line mix (Colo205, K-562, MV-4-11, and SK-N-BE(2)), Kinobeads y, ref Klaeger et al. (2017); cited from earlier work
TGFBR2 = test system: TGFBR2; parameters: method as in Klaeger et al. (2017); conditions: lysate 4 cell line mix (Colo205, K-562, MV-4-11, and SK-N-BE(2)), Kinobeads y, ref Klaeger et al. (2017); cited from earlier work
PANC-1 = test: cells; parameters: ATPlite luminescence viability of PDAC cell lines, 11-dose single-agent curves, 4-parameter fit; conditions: Homo sapiens, PANC-1, 72 h, read-out: EC50 [nM]
In short: (§1)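 Drug-combination screening used cells plated at 1000 to 5000 per well one day before treatment. Final DMSO was 0.2%. Each plate held untreated negative-control wells and 5 µM staurosporine positive-control wells.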

PRKAB1 = test system: PRKAB1; parameters: method as in Klaeger et al. (2017); conditions: lysate 4 cell line mix (Colo205, K-562, MV-4-11, and SK-N-BE(2)), Kinobeads y, ref Klaeger et al. (2017); cited from earlier work
ACVR1 = test system: ACVR1; parameters: method as in Klaeger et al. (2017); conditions: lysate 4 cell line mix (Colo205, K-562, MV-4-11, and SK-N-BE(2)), Kinobeads y, ref Klaeger et al. (2017); cited from earlier work
Suit2-07 = test: cells; parameters: ATPlite luminescence viability of PDAC cell lines, 11-dose single-agent curves, 4-parameter fit; conditions: 72 h, read-out: EC50 [nM]
In short: as §1

FAMPAC = test: cells; parameters: ATPlite luminescence viability of PDAC cell lines, 11-dose single-agent curves, 4-parameter fit; conditions: 72 h, read-out: EC50 [nM]
In short: as §1

Dan-G = test: cells; parameters: ATPlite luminescence viability of PDAC cell lines, 11-dose single-agent curves, 4-parameter fit; conditions: 72 h, read-out: EC50 [nM]
In short: as §1

PRKAG1 = test system: PRKAG1; parameters: method as in Reinecke et al. (2023); conditions: PRKAG1, 5 cell line mix lysate, Kinobeads ε, ref Reinecke et al. (2023), cited from earlier work
TBK1 = conditions: TBK1, 5 cell line mix lysate, Kinobeads ε, ref Reinecke et al. (2023), cited from earlier work
HuP-T4 = test: cells; parameters: ATPlite luminescence viability of PDAC cell lines, 11-dose single-agent curves, 4-parameter fit; conditions: Homo sapiens, HuP-T4, 72 h, read-out: EC50 [nM]
In short: as §1

PDO UME060 = test: PDO viability assay (CellTiter-Glo, 72 h); format: cell-based, human;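 for Curve top: fraction of plate-wise median vehicle signal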
Procedure: Primary patient-derived PDAC organoid (PDO) experiments were performed in the laboratories of Prof. Maximilian Reichert (University Hospital of the TU Munich, Germany, PDO set 1: B250, B535, B678) and Prof. Jens T. Siveke (University Hospital Essen, Germany; PDO set 2: UME008, UME012, UME051, UME053, UME060, UME061). PDOs were generated from surgical resection, EUS-guided fine needle biopsy (EUS-FNB), or ascites (Appendix Table S2). Surgical specimens were first minced with a sterile scalpel and subsequently washed with Anti-Anti solution and washing medium (PDO set 1), or vice versa (PDO set 2; Appendix Table S3). Biopsy samples were directly washed with an Anti-Anti solution and washing medium. Samples were digested using 1 ml of digestion medium at 37 °C while shaking, and the enzymatic reaction was stopped by adding 15 ml of washing medium (Appendix Table S3). If samples of PDO set 1 were blood-stained, tissue pellets were first incubated with ACK lysing buffer/red blood cells lysis buffer (Thermo Fisher Scientific) for 5 min and then digested using TrypLE (Thermo Fisher Scientific). The reversed procedure was applied for blood-stained samples of PDO set 2. For PDO generation from ascites, the material was first spun down at 500 × g for 5 min. Then, washing medium was added and the suspension was centrifuged at 300 × g for 5 min. If the pellet was blood-stained, ACK lysis buffer was added and incubated at room temperature.
For viability assays in PDOs, confluent organoids were removed from medium, and Matrigel was dissolved by adding 200 μl (PDO set 1) or 2 ml (PDO set 2) of Cell Recovery Solution (Corning), and additionally 500 μl of DPBS (PDO set 1 only). Samples were transferred into a falcon and incubated on ice for 30 min, followed by centrifugation at 300 × g at 4 °C for 5 min (after adding 10 ml washing medium for PDO set 2). Subsequently, TrypLE Express Enzyme (Thermo Fisher) was added to cell pellets and incubated for 2 × 5 min at 37 °C. The enzymatic reaction was quenched by DPBS (PDO set 1) or washing medium (PDO set 2), and samples were washed by centrifugation at 300 × g at 4 °C for 5 min. Five hundred cells/well were seeded in 384-well plates (Corning) in 50 μl of PDO medium containing 10% Matrigel. To allow PDO generation, cells were incubated for 4 days at 37 °C and 5% CO2. […] Experiments were pipetted manually (PDO set 1) or automatically using a TECAN D300e Digital Dispenser (HP; PDO set 2). Treatments were performed in eight replicates, except for PDO PPES045 (quadruplicates). After 72 h, cell viability was measured using the CellTiter-Glo Luminescent Cell Viability Assay (Promega) diluted 1:5 in the final volume of the well. After 20 min of incubation at room temperature under gentle shaking, the acquisition was performed in the microplate reader VantaSTAR (BMG Labtech) using 3000 gain for the amplification measurement of a detected signal (PDO set 1) or the Spark Multimode microplate reader (TECAN) at 800 ms integration time (PDO set 2).

Structure (SMILES): C[C@]12O[C@H](C[C@]1(O)CO)n1c3ccccc3c3c4c(c5c6ccccc6n2c5c31)CNC4=O [Lestaurtinib]
- EC50 (RPS6KA3): 2790 nM
- EC50 (INCENP): 520 nM
- EC50 (PANC-1): > 10000 nM
- EC50 (PRKAB1): 1790 nM

Structure (SMILES): CCN1CCN(Cc2ccc(Nc3ncc(F)c(-c4cc(F)c5nc(C)n(C(C)C)c5c4)n3)nc2)CC1 [Abemaciclib]
- EC50 (Suit2-07): 250 nM
- EC50 (FAMPAC): > 10000 nM
- EC50 (Dan-G): > 10000 nM

Structure (SMILES): COc1cc(N2CCC(N3CCN(C)CC3)CC2)ccc1Nc1ncc(Cl)c(Nc2ccccc2P(C)(C)=O)n1 [Brigatinib]
- EC50 (PRKAG1): 559 nM
- pKDapp (PRKAG1): 6.45
- Kd (PRKAG1; read-out: KDapp): 354 nM
- EC50 (TBK1): 1020 nM
- pKDapp (TBK1): 6.18
- Kd (TBK1; read-out: KDapp): 655 nM

Structure (SMILES): C[C@@H]1COCCN1c1cc(-c2ccnn2C)c2ccnc(-c3ccn[nH]3)c2n1 [Elimusertib]
- EC50 (HuP-T4): 359 nM

Structure (SMILES): Nc1ccn([C@@H]2O[C@H](CO)[C@@H](O)C2(F)F)c(=O)n1 [GEM, Gemcitabine]
- EC50 (PDO UME060; Homo sapiens, PDO UME060, GEM alone, read-out: EC50 mean): 23.4 nM
- EC50 (PDO UME060; Homo sapiens, PDO UME060, experiment GEM (GEM alone), mean of replicates, read-out: EC50 mean): 23.4 nM
- EC50 (PDO UME060; PDO UME060, PDO set 2, experiment GEM (GEM alone), single replicates, read-out: EC50): 31.8 nM and 30.4 nM and 22.2 nM and 14.8 nM and 21.8 nM and 39.5 nM and 17.7 nM and 9.22 nM
- Curve top (PDO UME060; PDO UME060, experiment GEM (GEM alone), curve fit): 1.00 and 0.88 and 1.04 and 0.95 and 1.07 and 0.83 and 1.30
- pEC50 (PDO UME060; PDO UME060, experiment GEM (GEM alone), single replicates): 7.50 and 7.52 and 7.65 and 7.83 and 7.66 and 7.40 and 7.75 and 8.04
